# According to patent publication US9095524B2, “Customized compositions and uses thereof” (Bond University Ltd., priority 2011, dated 2015):
# System: HMSCs
# Experiment: Calcium deposition (osteogenic differentiation) with purmorphamine
# Type: cell-based, human
# Conditions: 2 μM purmorphamine added directly into differentiation media, hMSCs on polystyrene culture plate (PS)
smiles,measurement,value
c1ccc2c(Oc3nc(Nc4ccc(N5CCOCC5)cc4)c4ncn(C5CCCCC5)c4n3)cccc2c1 [purmorphamine],calcium deposition,significant increase in calcium deposition
